15 molecules from patent publication US20150352108A1, “AMINO-PYRIMIDINE COMPOUNDS AS INHIBITORS OF TBK1 AND/OR IKK EPSILON” (Alzheimer's Institute of America, priority 2009, published 2015) can be followed below.

The target of one assay is T1, IKKε (Homo sapiens, UniProt Q14164).
T1 construct: His-tag; made in house; host or cells: Sf9 insect cells
T1 sequence (Q14164 1-716): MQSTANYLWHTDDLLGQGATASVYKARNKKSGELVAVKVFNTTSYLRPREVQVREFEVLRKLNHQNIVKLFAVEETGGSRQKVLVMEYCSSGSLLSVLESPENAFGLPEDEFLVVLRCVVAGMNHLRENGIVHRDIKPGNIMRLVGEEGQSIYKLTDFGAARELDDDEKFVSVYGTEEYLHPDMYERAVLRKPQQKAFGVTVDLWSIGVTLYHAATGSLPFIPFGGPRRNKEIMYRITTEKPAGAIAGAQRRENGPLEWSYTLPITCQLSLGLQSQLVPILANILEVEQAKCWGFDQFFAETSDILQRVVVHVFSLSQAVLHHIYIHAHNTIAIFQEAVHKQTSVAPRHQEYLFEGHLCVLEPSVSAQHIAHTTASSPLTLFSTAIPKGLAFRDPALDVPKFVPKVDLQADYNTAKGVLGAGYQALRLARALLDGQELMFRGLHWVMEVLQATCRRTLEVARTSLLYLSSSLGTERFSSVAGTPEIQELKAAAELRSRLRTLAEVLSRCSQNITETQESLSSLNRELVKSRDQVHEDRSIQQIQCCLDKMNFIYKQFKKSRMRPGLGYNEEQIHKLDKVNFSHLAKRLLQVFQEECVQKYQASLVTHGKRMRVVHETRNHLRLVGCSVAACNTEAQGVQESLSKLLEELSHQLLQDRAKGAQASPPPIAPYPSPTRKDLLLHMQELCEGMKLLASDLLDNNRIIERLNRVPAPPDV
The assay can be described thus: In-vitro IKKε kinase assay ([γ33]ATP filter-plate). The assay is classed as biochemical. Summed up: (§1)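 Phosphorylation of casein or myelin basic protein was counted by P-81 filter capture after 30-45 min reactions stopped with phosphoric acid, with counts normalized to DMSO after background subtraction. ATP was twice Km: 60 μM for TBK1 and 32 μM for IKKε, plus [γ33]ATP. Sf9-expressed His-tag enzymes were used at normal/sensitized levels of 0.1/0.02 μg/ml (TBK1) and 0.1/0.015 μg/ml (IKKε).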

The target of a further assay is T2, TBK1 (Homo sapiens, UniProt Q9UHD2).
T2 construct: His-tag; made in house; host or cells: Sf9 insect cells
T2 sequence (Q9UHD2 1-729): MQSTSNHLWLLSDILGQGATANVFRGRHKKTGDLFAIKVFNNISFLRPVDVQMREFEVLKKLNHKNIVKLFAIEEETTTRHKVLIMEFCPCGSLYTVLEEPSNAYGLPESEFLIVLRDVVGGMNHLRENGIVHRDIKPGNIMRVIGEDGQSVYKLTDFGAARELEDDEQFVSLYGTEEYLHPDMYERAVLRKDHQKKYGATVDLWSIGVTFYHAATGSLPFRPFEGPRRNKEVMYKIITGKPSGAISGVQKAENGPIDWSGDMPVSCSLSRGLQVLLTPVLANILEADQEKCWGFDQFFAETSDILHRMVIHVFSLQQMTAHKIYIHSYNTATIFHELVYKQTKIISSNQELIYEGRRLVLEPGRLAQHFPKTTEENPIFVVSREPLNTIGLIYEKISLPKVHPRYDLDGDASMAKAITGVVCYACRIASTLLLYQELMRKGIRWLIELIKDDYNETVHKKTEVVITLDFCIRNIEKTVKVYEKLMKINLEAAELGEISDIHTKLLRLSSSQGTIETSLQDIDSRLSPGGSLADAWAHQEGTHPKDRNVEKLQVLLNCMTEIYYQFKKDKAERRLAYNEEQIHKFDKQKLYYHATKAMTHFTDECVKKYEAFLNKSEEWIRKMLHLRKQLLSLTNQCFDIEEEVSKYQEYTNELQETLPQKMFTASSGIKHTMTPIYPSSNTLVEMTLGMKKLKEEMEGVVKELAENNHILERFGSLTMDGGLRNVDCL
The assay can be described thus: In-vitro TBK1 kinase assay ([γ33]ATP filter-plate). The assay is classed as biochemical. The procedure, abridged:
as §1

For assay [1], the system named is IKKε-mediated phosphorylation of IRF3. The assay is described as follows: In-situ phosphorylation of IRF3 (pIRF3 Ser396 ELISA) in HEK293T cells cotransfected with IRF3 and IKKε. The assay is classed as cell-based. The note with it: Homo sapiens, HEK-293T. Summed up: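 Cells for the IRF7 Western blots carried IRF7 and TBK1 plasmids, were seeded at 150,000/well, exposed to compound overnight and probed for pSer477/Ser479 IRF7. The ELISA readout used IRF3 + IKKε-cotransfected HEK293T at 20,000/well with 20 h treatment, quantifying pSer396 IRF3 relative to DMSO, plus a parallel CellTiter-Glo viability check.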
A general note: An ELISA detects its analyte on a solid surface through an enzyme-linked reagent.

[2] abbreviates: text bins, read-out: IC50 for inhibition of the kinase activity of IKKε.
The mark [3] stands for this setting: text bins, read-out: IC50 for inhibition of the kinase activity of TBK1.
The mark [4] stands for this setting: HEK293T cells in culture, Table 3, read-out: pIRF3 ELISA IC50.
The mark [5] stands for this setting: HEK293T cells, 20 hours, text bins, read-out: IC50 for inhibition of the in-situ IKKε-mediated phosphorylation of IRF3.

Read-outs that look alike come from different tables or passages of the source. Bounds are passed on as bounds.

For the molecule `COc1cc(Nc2nccc(-c3ccc(OC4CCOCC4)c(C#N)c3)n2)ccc1C(=O)N1CCCC1` [compound 613, 5-(2-{[3-Methoxy-4-(pyrrolidin-1-ylcarbonyl)phenyl]amino}pyrimidin-4-yl)-2-(tetrahydro-2H-pyran-4-yloxy)benzonitrile], the IC50 – broadly, the concentration that inhibits the measured activity by half – on IKKε (Table 3, read-out: IKKε IC50) was 0.8 nM; on IKKε (setting [2]), under 5 nM; on TBK1 (Table 3, read-out: TBK1 IC50), 0.4 nM; on TBK1 (setting [3]) it was under 10 nM; in assay [1] (setting [4]) it was 19.9 nM; in assay [1] (setting [5]), under 100 nM.
Regarding `CN1CCN(CCNc2cccc(Nc3nccc(-c4ccc(OC5CCOCC5)c(C#N)c4)n3)c2)CC1` [compound 616, 5-{2-[(3-{[2-(4-Methylpiperazin-1-yl)ethyl]amino}phenyl)amino]pyrimidin-4-yl}-2-(tetrahydro-2H-pyran-4-yloxy)benzonitrile], the IC50 on IKKε (Table 3, read-out: IKKε IC50) is 1.1 nM; at IKKε (setting [2]), under 5 nM; on TBK1 (Table 3, read-out: TBK1 IC50), 1.6 nM; on TBK1 (setting [3]), under 10 nM; in assay [1] (setting [4]) it was 98.5 nM; in assay [1] (setting [5]), under 100 nM.
On to `CCN(CC)CCOc1cc(Nc2nccc(-c3ccc(OC4CCOCC4)c(C#N)c3)n2)ccc1C` [compound 618, 5-[2-({3-[2-(Diethylamino)ethoxy]-4-methylphenyl}amino)pyrimidin-4-yl]-2-(tetrahydro-2H-pyran-4-yloxy)benzonitrile], for which the results for the IC50 (on IKKε (setting [2]); on TBK1 (setting [3]); in assay [1] (setting [5])) were under 5 nM, under 10 nM and under 100 nM, respectively.
With `N#Cc1cc(-c2ccnc(Nc3cccc(CS(=O)(=O)NCCO)c3)n2)ccc1OC1CCOCC1` [compound 619, 1-[3-({4-[3-Cyano-4-(tetrahydro-2H-pyran-4-yloxy)phenyl]pyrimidin-2-yl}amino)phenyl]-N-(2-hydroxyethyl) methanesulfonamide], the half-inhibitory concentration (IC50) on IKKε (Table 3, read-out: IKKε IC50) was 1.2 nM; at IKKε (setting [2]), under 5 nM; on TBK1 (Table 3, read-out: TBK1 IC50), 0.2 nM; at TBK1 (setting [3]) it was under 10 nM; in assay [1] (setting [4]) it was 287 nM; in assay [1] (setting [5]) it was 250 to 500 nM.
With `N#Cc1cc(-c2ccnc(Nc3cccc(N4CCN(CCO)CC4)c3)n2)ccc1OC1CCOCC1` [compound 620, 5-[2-({3-[4-(2-Hydroxyethyl)piperazin-1-yl]phenyl}amino)pyrimidin-4-yl]-2-(tetrahydro-2H-pyran-4-yloxy)benzonitrile], the IC50 on IKKε (Table 3, read-out: IKKε IC50) was 0.7 nM; at IKKε (setting [2]) it was under 5 nM; at TBK1 (Table 3, read-out: TBK1 IC50), 1.9 nM; at TBK1 (setting [3]), under 10 nM; in assay [1] (setting [4]), 50.3 nM; in assay [1] (setting [5]), under 100 nM.
Take `N#Cc1cc(-c2ccnc(Nc3cccc(CN4CCN(CCO)CC4)c3)n2)ccc1OC1CCOCC1` [compound 625, 5-{2-[(3-{[4-(2-Hydroxyethyl)piperazin-1-yl]methyl}phenyl)amino]pyrimidin-4-yl}-2-(tetrahydro-2H-pyran-4-yloxy)benzonitrile]: the IC50 was 2 nM at IKKε (Table 3, read-out: IKKε IC50); under 5 nM on IKKε (setting [2]); 0.4 nM at TBK1 (Table 3, read-out: TBK1 IC50); under 10 nM on TBK1 (setting [3]); 16.9 nM in assay [1] (setting [4]); under 100 nM in assay [1] (setting [5]).
With `N#Cc1cc(-c2ccnc(Nc3ccc(F)c(OCCN4CCNCC4)c3)n2)ccc1OC1CCOCC1` [compound 626, 5-[2-({4-Fluoro-3-[2-(piperazin-1-yl)ethoxy]phenyl}amino)pyrimidin-4-yl]-2-(tetrahydro-2H-pyran-4-yloxy)benzonitrile], the half-maximal inhibitory concentration (IC50) on IKKε (setting [2]) was under 5 nM; on TBK1 (setting [3]), under 10 nM; in assay [1] (setting [5]), under 100 nM.
`N#Cc1cc(-c2ccnc(Nc3cccc(CS(=O)(=O)NCCO)c3)n2)ccc1NC(=O)C1CC1` [compound 627, N-(2-Cyano-4-{2-[(3-{[(2-hydroxyethyl)sulfamoyl]methyl}phenyl)amino]pyrimidin-4-yl}phenyl) cyclopropane-carboxamide]: the IC50 at IKKε (Table 3, read-out: IKKε IC50) is 3 nM; at IKKε (setting [2]), under 5 nM; at TBK1 (Table 3, read-out: TBK1 IC50), 1.3 nM; at TBK1 (setting [3]), under 10 nM; in assay [1] (setting [4]), 1100 nM.
As for `CN(C)C(=O)Nc1cccc(Nc2nccc(-c3ccc(OC4CCOCC4)c(C#N)c3)n2)c1` [compound 631, 3-[3-({4-[3-Cyano-4-(tetrahydro-2H-pyran-4-yloxy)phenyl]pyrimidin-2-yl}amino)phenyl]-1,1-dimethylurea], the concentration for half-maximal inhibition (IC50) at IKKε (Table 3, read-out: IKKε IC50) was 0.8 nM; at IKKε (setting [2]), under 5 nM; at TBK1 (Table 3, read-out: TBK1 IC50), 1.3 nM; at TBK1 (setting [3]) it was under 10 nM; in assay [1] (setting [4]) it was 31.9 nM; in assay [1] (setting [5]), under 100 nM.
On to `COCCOC1CN(C(=O)c2ccc(Nc3nccc(-c4ccc(OC5CCOCC5)c(C#N)c4)n3)cc2OC)C1` [compound 632, 5-{2-[(3-Methoxy-4-{[3-(2-methoxyethoxy)azetidin-1-yl]carbonyl}phenyl)amino]pyrimidin-4-yl}-2-(tetrahydro-2H-pyran-4-yloxy)benzonitrile], for which the 50% inhibitory concentration (IC50) on IKKε (Table 3, read-out: IKKε IC50) is 0.5 nM; on IKKε (setting [2]), under 5 nM; on TBK1 (Table 3, read-out: TBK1 IC50), 0.4 nM; on TBK1 (setting [3]), under 10 nM; in assay [1] (setting [4]), 22.8 nM; in assay [1] (setting [5]) it was under 100 nM.
Take `N#Cc1cc(-c2ccnc(Nc3ccc(F)c(OCCN)c3)n2)ccc1OC1CCOCC1` [compound 640, 5-(2-{[3-(2-Aminoethoxy)-4-fluorophenyl]amino}pyrimidin-4-yl)-2-(tetrahydro-2H-pyran-4-yloxy)benzonitrile]: the figures for the IC50 (on IKKε (setting [2]); on TBK1 (setting [3]); in assay [1] (setting [5])) were under 5 nM, under 10 nM and 100 to 250 nM, respectively.
For the molecule `N#Cc1cc(-c2ccnc(Nc3cccc(NC(=O)N4CCOCC4)c3)n2)ccc1OC1CCOCC1` [compound 646, N-[3-({4-[3-Cyano-4-(tetrahydro-2H-pyran-4-yloxy)phenyl]pyrimidin-2-yl}amino)phenyl] morpholine-4-carboxamide], the half-inhibitory concentration (IC50) at IKKε (Table 3, read-out: IKKε IC50) is 0.7 nM; on IKKε (setting [2]), under 5 nM; at TBK1 (Table 3, read-out: TBK1 IC50) it was 1.3 nM; at TBK1 (setting [3]) it was under 10 nM; in assay [1] (setting [4]), 30.9 nM; in assay [1] (setting [5]), under 100 nM.
As for `CNS(=O)(=O)Cc1cccc(Nc2nccc(-c3ccc(OC4CCOCC4)c(C#N)c3)n2)c1` [compound 648, 1-[3-({4-[3-Cyano-4-(tetrahydro-2H-pyran-4-yloxy)phenyl]pyrimidin-2-yl}amino)phenyl]-N-methylmethane-sulfonamide], the IC50 at IKKε (Table 3, read-out: IKKε IC50) is 3.9 nM; at IKKε (setting [2]), under 5 nM; on TBK1 (Table 3, read-out: TBK1 IC50), 0.5 nM; at TBK1 (setting [3]), under 10 nM; in assay [1] (setting [4]) it was 179 nM; in assay [1] (setting [5]), 100 to 250 nM.
Turning to `CC(C)N1CCN(CCOc2cc(Nc3nccc(-c4ccc(OC5CCOCC5)c(C#N)c4)n3)ccc2F)CC1` [compound 650, 5-{2-[(4-Fluoro-3-{2-[4-(propan-2-yl)piperazin-1-yl]ethoxy}phenyl)amino]pyrimidin-4-yl}-2-(tetrahydro-2H-pyran-4-yloxy)benzonitrile], the values for the IC50 (at IKKε (setting [2]); at TBK1 (setting [3]); in assay [1] (setting [5])) were under 5 nM, under 10 nM and under 100 nM, respectively.
As for `COCCNCc1ccc(Nc2nccc(-c3ccc(OCC(C)C)c(C#N)c3)n2)cc1` [compound 651], the 50% inhibitory concentration (IC50) at IKKε (setting [2]) is under 5 nM; on TBK1 (setting [3]), under 10 nM; in assay [1] (setting [5]), under 100 nM.
